Results taken from the NIST ThermoML archive (doi:10.1021/acs.jced.8b00537).
Numbers after ± are expanded uncertainties.

Assays:
[1] = 100 kPa, Liquid; for speed of sound: Frequency=3 MHz, Single path-length method; for mass density: Vibrating tube method; for viscosity: Capillary tube (Ostwald / Ubbelohde) method
[2] = xn = mol fraction of the nth substance listed; details: 100 kPa, Liquid, x2 = 0; for viscosity: Capillary tube (Ostwald / Ubbelohde) method; for speed of sound: Frequency=3 MHz, Single path-length method; for mass density: Vibrating tube method

C=CCn1cc[n+](C)c1.O=S(=O)([N-]S(=O)(=O)C(F)(F)F)C(F)(F)F
[1]
Details	mass density [kg/m3]	speed of sound [m/s]	viscosity [mPa·s]
278.15 K	1520.13 ± 3.2	1286.6 ± 6.2	–
283.15 K	1514.97 ± 3.2	1274.9 ± 6.2	–
288.15 K	1509.81 ± 3.2	1263.1 ± 6.2	–
293.15 K	1504.69 ± 3.2	1251.6 ± 6.2	41.83 ± 3.4
298.15 K	–	1240.2 ± 6.2	–
303.15 K	1494.52 ± 3.2	1228.9 ± 6.2	28.51 ± 2.3
308.15 K	1489.48 ± 3.2	1217.8 ± 6.2	23.96 ± 1.9
313.15 K	1484.45 ± 3.2	1206.8 ± 6.2	20.41 ± 1.6
318.15 K	1479.44 ± 3.2	1196 ± 6.2	17.51 ± 1.4
323.15 K	1474.45 ± 3.1	1185.2 ± 6.2	15.19 ± 1.2
328.15 K	1469.5 ± 3.1	1174.7 ± 6.2	13.23 ± 1.1
333.15 K	1464.56 ± 3.1	1164.2 ± 6.2	11.62 ± 0.93
338.15 K	1459.65 ± 3.1	1153.8 ± 6.2	10.28 ± 0.83
343.15 K	1454.75 ± 3.1	1143.5 ± 6.2	9.125 ± 0.73

CCCC[N+]1(C)CCCC1.O=S(=O)([N-]S(=O)(=O)C(F)(F)F)C(F)(F)F
[1]
Details	mass density [kg/m3]	speed of sound [m/s]	viscosity [mPa·s]
278.15 K	1412.33 ± 3.3	1316.3 ± 6.3	–
283.15 K	1407.79 ± 3.2	1304.4 ± 6.3	–
288.15 K	1403.28 ± 3.2	1292.5 ± 6.3	–
293.15 K	1398.78 ± 3.2	1280.8 ± 6.3	97.14 ± 7.9
298.15 K	1394.32 ± 3.2	1269.4 ± 6.3	76.54 ± 6.2
303.15 K	1389.87 ± 3.2	1258.2 ± 6.3	61.31 ± 4.9
308.15 K	1385.44 ± 3.2	1247.1 ± 6.3	49.84 ± 4
313.15 K	1381.05 ± 3.2	1236.1 ± 6.3	41.08 ± 3.3
318.15 K	1376.66 ± 3.2	1225.3 ± 6.3	34.3 ± 2.8
323.15 K	1372.3 ± 3.1	1214.6 ± 6.3	28.98 ± 2.3
328.15 K	1367.94 ± 3.1	1204.1 ± 6.3	24.76 ± 2
333.15 K	1363.6 ± 3.1	1193.6 ± 6.3	20.74 ± 1.7
338.15 K	1359.28 ± 3.1	1183.2 ± 6.3	18.03 ± 1.5
343.15 K	1354.98 ± 3.1	1173 ± 6.3	15.8 ± 1.3

O=S(=O)([N-]S(=O)(=O)C(F)(F)F)C(F)(F)F.On1cc[n+](O)c1 [1,3-dihydroxyimidazolium bis(trifluoromethylsulfonyl)imide]
[1]
Details	mass density [kg/m3]	speed of sound [m/s]	viscosity [mPa·s]
293.15 K	1746.4 ± 4.3	1208.2 ± 6.3	238.6 ± 20
298.15 K	1740.44 ± 4.3	1196.6 ± 6.3	171.83 ± 14
303.15 K	1734.52 ± 4.3	1185.2 ± 6.3	127.52 ± 10
308.15 K	1728.64 ± 4.3	1174.1 ± 6.3	96.92 ± 7.9
313.15 K	1722.79 ± 4.2	1163.1 ± 6.3	75.56 ± 6.1
318.15 K	1716.97 ± 4.2	1152.3 ± 6.3	59.8 ± 4.8
323.15 K	1711.19 ± 4.2	1141.6 ± 6.3	48.29 ± 3.9
328.15 K	1705.44 ± 4.2	1131.1 ± 6.3	39.57 ± 3.2
333.15 K	1699.71 ± 4.2	1120.7 ± 6.3	32.88 ± 2.7
338.15 K	1694.01 ± 4.2	1110.4 ± 6.3	27.69 ± 2.2
343.15 K	1688.34 ± 4.1	1100.2 ± 6.3	23.59 ± 1.9

CCCO [propan-1-ol]
[1]
Details	mass density [kg/m3]	speed of sound [m/s]	viscosity [mPa·s]
278.15 K	815.52 ± 1.6	1276 ± 6	–
283.15 K	811.6 ± 1.6	1258.7 ± 6	–
288.15 K	807.63 ± 1.6	1241.1 ± 6	–
293.15 K	803.65 ± 1.6	1223.8 ± 6	2.14 ± 0.17
298.15 K	799.65 ± 1.6	1206.5 ± 6	1.897 ± 0.15
303.15 K	795.61 ± 1.6	1189.4 ± 6	1.688 ± 0.14
308.15 K	791.54 ± 1.6	1172.4 ± 6	1.506 ± 0.12
313.15 K	787.43 ± 1.6	1155.5 ± 6	1.348 ± 0.11
318.15 K	783.27 ± 1.6	1138.7 ± 6	1.211 ± 0.097
323.15 K	779.05 ± 1.6	1121.9 ± 6	1.09 ± 0.087
328.15 K	774.79 ± 1.6	1105.2 ± 6	0.985 ± 0.079
333.15 K	770.44 ± 1.6	1088.3 ± 6	0.892 ± 0.072
338.15 K	766.03 ± 1.5	1071.5 ± 6	0.81 ± 0.065
343.15 K	761.53 ± 1.5	1054.5 ± 6	0.737 ± 0.059

CCCO [propan-1-ol] + C=CCn1cc[n+](C)c1.O=S(=O)([N-]S(=O)(=O)C(F)(F)F)C(F)(F)F
[2]
Details	mass density [kg/m3]	speed of sound [m/s]	viscosity [mPa·s]
293.15 K	804 ± 2	1223.8 ± 6	2.14 ± 0.17
298.15 K	–	1206.5 ± 6	–
303.15 K	796 ± 2	1189.4 ± 6	1.688 ± 0.14
308.15 K	792 ± 2	1172.4 ± 6	1.506 ± 0.12
313.15 K	787 ± 2	1155.5 ± 6	1.348 ± 0.11
318.15 K	783 ± 2	1138.7 ± 6	1.211 ± 0.097
323.15 K	779 ± 2	1121.9 ± 6	1.09 ± 0.087
328.15 K	775 ± 2	1105.2 ± 6	0.985 ± 0.079
333.15 K	770 ± 2	1088.3 ± 6	0.892 ± 0.072
338.15 K	766 ± 2	1071.5 ± 6	0.81 ± 0.065
343.15 K	762 ± 2	1054.5 ± 6	0.737 ± 0.059

CCCO [propan-1-ol] + CC[S+](CC)CC.O=S(=O)([N-]S(=O)(=O)C(F)(F)F)C(F)(F)F
[2]
Details	mass density [kg/m3]	speed of sound [m/s]	viscosity [mPa·s]
293.15 K	804 ± 2	1223.8 ± 6	2.14 ± 0.17
298.15 K	800 ± 2	1206.5 ± 6	1.897 ± 0.15
303.15 K	796 ± 2	1189.4 ± 6	1.688 ± 0.14
308.15 K	792 ± 2	1172.4 ± 6	1.506 ± 0.12
313.15 K	787 ± 2	1155.5 ± 6	1.348 ± 0.11
318.15 K	783 ± 2	1138.7 ± 6	1.211 ± 0.097
323.15 K	779 ± 2	1121.9 ± 6	1.09 ± 0.087
328.15 K	775 ± 2	1105.2 ± 6	0.985 ± 0.079
333.15 K	770 ± 2	1088.3 ± 6	0.892 ± 0.072
338.15 K	766 ± 2	1071.5 ± 6	0.81 ± 0.065
343.15 K	762 ± 2	1054.5 ± 6	0.737 ± 0.059

CCCO [propan-1-ol] + O=S(=O)([N-]S(=O)(=O)C(F)(F)F)C(F)(F)F.On1cc[n+](O)c1
[2]
Details	mass density [kg/m3]	speed of sound [m/s]	viscosity [mPa·s]
293.15 K	804 ± 2	1223.8 ± 6	2.14 ± 0.17
298.15 K	800 ± 2	1206.5 ± 6	1.897 ± 0.15
303.15 K	796 ± 2	1189.4 ± 6	1.688 ± 0.14
308.15 K	792 ± 2	1172.4 ± 6	1.506 ± 0.12
313.15 K	787 ± 2	1155.5 ± 6	1.348 ± 0.11
318.15 K	783 ± 2	1138.7 ± 6	1.211 ± 0.097
323.15 K	779 ± 2	1121.9 ± 6	1.09 ± 0.087
328.15 K	775 ± 2	1105.2 ± 6	0.985 ± 0.079
333.15 K	770 ± 2	1088.3 ± 6	0.892 ± 0.072
338.15 K	766 ± 2	1071.5 ± 6	0.81 ± 0.065
343.15 K	762 ± 2	1054.5 ± 6	0.737 ± 0.059

CC[S+](CC)CC.O=S(=O)([N-]S(=O)(=O)C(F)(F)F)C(F)(F)F [triethylsulfonium bis((trifluoromethyl)sulfonyl)imide]
[1]
Details	mass density [kg/m3]	speed of sound [m/s]	viscosity [mPa·s]
278.15 K	1479.52 ± 3	1284.8 ± 6.1	–
283.15 K	1474.62 ± 3	1274.1 ± 6.1	–
288.15 K	1469.71 ± 3	1263.3 ± 6.1	–
293.15 K	1464.83 ± 3	1252.9 ± 6.1	39.64 ± 3.2
298.15 K	1459.98 ± 3	1242.5 ± 6.1	32.43 ± 2.6
303.15 K	1455.14 ± 3	1232.4 ± 6.1	26.92 ± 2.2
308.15 K	1450.33 ± 3	1222.4 ± 6.1	22.64 ± 1.8
313.15 K	1445.52 ± 3	1212.7 ± 6.1	19.24 ± 1.5
318.15 K	1440.74 ± 2.9	1203.1 ± 6.1	16.53 ± 1.3
323.15 K	1435.99 ± 2.9	1193.7 ± 6.1	14.31 ± 1.1
328.15 K	1431.27 ± 2.9	1184.7 ± 6.1	12.5 ± 1
333.15 K	1426.57 ± 2.9	1175.9 ± 6.1	10.99 ± 0.88
338.15 K	1421.87 ± 2.9	1166.8 ± 6.1	9.726 ± 0.78
343.15 K	1417.19 ± 2.9	1157.6 ± 6.1	8.659 ± 0.69
